As usually defined, the IC50 is the midpoint of a concentration-inhibition curve. Low readings indicate higher potency, high ones lower potency.

In ChEMBL document CHEMBL1149949, “Nonpeptidic HIV protease inhibitors: 3-(S-benzyl substituted)-4-hydroxy-6-(phenyl substituted)-2H-pyran-2-one with an inverse mode of binding” (Bioorg Med Chem Lett, 1996) one finds IC50 data, which are given here for 36 compounds.

In this experiment the target is Human immunodeficiency virus type 1 protease (Human immunodeficiency virus 1, UniProt Q72874). Nature of the experiment: In vitro inhibitory activity against HIV-1 protease(PR).
`Cc1ccc(CSc2c(O)cc(-c3ccccc3)oc2=O)cc1` displayed an IC50 of 4580 nM.
With `COc1ccc(-c2cc(O)c(SCc3ccccc3)c(=O)o2)cc1C`, the IC50 worked out at 740 nM.
Compound `O=c1cc(-c2ccccc2)oc(O)c1SCc1ccc2c(c1)OCCO2` returned an IC50 of 3420 nM. This IC50 is about 4.6-fold higher than that of the compound before.
For `COC(=O)c1cccc(CSc2c(O)cc(-c3ccccc3)oc2=O)c1` the value was 19300 nM; for `Cc1cc(-c2cc(O)c(SCc3ccccc3)c(=O)o2)cc(C)c1O`, 250 nM; for `COC(=O)c1ccc(CSc2c(O)cc(-c3ccccc3)oc2=O)cc1`, above 10000 nM.
The result for `O=c1cc(-c2ccc3c(c2)OCCO3)oc(O)c1SCc1ccccc1` reads 790 nM; that for `O=C(OC1CCCC1)c1ccccc1CSc1c(O)oc(-c2ccccc2)cc1=O`, 50 nM; that for `O=c1cc(-c2ccccc2O)oc(O)c1SCc1ccccc1`, 6000 nM.
The compound `O=C(O)c1ccccc1CSc1c(O)cc(-c2ccccc2)oc1=O` registered an IC50 of 24800 nM.
The result for `O=c1cc(-c2ccc(O)cc2)oc(O)c1SCc1ccccc1` reads 690 nM; that for `Cc1ccccc1-c1cc(O)c(SCc2ccccc2)c(=O)o1`, 14200 nM.
In turn, `O=c1cc(-c2ccccc2Cl)oc(O)c1SCc1ccccc1` displayed an IC50 of 2540 nM.
For `Cc1cc(C)cc(-c2cc(O)c(SCc3ccccc3)c(=O)o2)c1` the value was 260 nM.
On to `O=c1cc(-c2cccc(Cl)c2)oc(O)c1SCc1ccccc1`, for which the half-maximal inhibitory concentration (IC50) came to 690 nM.
The result for `Cc1cccc(-c2cc(O)c(SCc3ccccc3)c(=O)o2)c1` reads 860 nM; that for `COc1cccc(-c2cc(O)c(SCc3ccccc3)c(=O)o2)c1`, 990 nM; that for `O=C(O)c1cccc(CSc2c(O)cc(-c3ccccc3)oc2=O)c1`, 6150 nM.
The compound `O=C(O)c1ccc(-c2cc(O)c(SCc3ccccc3)c(=O)o2)cc1` came in with an IC50 of 360 nM. Against the preceding compound, the IC50 is about 17-fold lower.
On to `O=C(OC1CCCCC1)c1ccccc1CSc1c(O)oc(-c2ccccc2)cc1=O`, for which the IC50 came out at 1200 nM.
For `O=c1cc(-c2ccccc2)oc(O)c1SCc1ccccc1` the value was 1700 nM; for `Cc1ccc(-c2cc(O)c(SCc3ccccc3)c(=O)o2)cc1`, 12300 nM.
For `COC(=O)c1ccccc1CSc1c(O)cc(-c2ccccc2)oc1=O` the value was 1000 nM; for `Cc1cccc(CSc2c(O)cc(-c3ccccc3)oc2=O)c1`, 8540 nM.
The result for `COC(=O)c1ccc(-c2cc(O)c(SCc3ccccc3)c(=O)o2)cc1` reads above 100000 nM.
In turn, `CC(C)(C)NC(=O)c1ccccc1CSc1c(O)cc(-c2ccccc2)oc1=O` returned an IC50 of 190 nM.
For `O=c1cc(-c2cccc(O)c2)oc(O)c1SCc1ccccc1`, the IC50 turned out to be 1190 nM.
Take `CC(C)COC(=O)c1ccccc1CSc1c(O)cc(-c2ccccc2)oc1=O`: the midpoint of inhibition, the IC50, lay at 619 nM. This IC50 is about 1.9-fold lower than that of the compound before.
For `CCc1cccc(-c2cc(O)c(SCc3ccccc3)c(=O)o2)c1` the value was 2040 nM.
In turn, `COc1ccc(-c2cc(O)c(SCc3ccccc3)c(=O)o2)cc1` registered an IC50 of 1630 nM.
For `O=c1cc(-c2cc(C(F)(F)F)cc(C(F)(F)F)c2)oc(O)c1SCc1ccccc1` the value was 630 nM.
The result for `CC(C)OC(=O)c1ccccc1CSc1c(O)cc(-c2ccccc2)oc1=O` reads 34 nM.
For `O=c1cc(-c2cccc(C(F)(F)F)c2)oc(O)c1SCc1ccccc1` the value was 600 nM; for `Cc1ccccc1CSc1c(O)cc(-c2ccccc2)oc1=O`, 5370 nM.
The compound `O=C(O)c1ccc(CSc2c(O)cc(-c3ccccc3)oc2=O)cc1` came in with an IC50 of 10200 nM.
For `O=c1cc(-c2cccc(OC(F)(F)F)c2)oc(O)c1SCc1ccccc1` the value was 2140 nM.
